# From patent publication US20250381277A1, “COMPOSITIONS AND METHODS FOR TREATMENT OF NEUROLOGICAL DISORDERS” (Dana-Farber Cancer Institute, Inc., priority 2022, published 2025)
# “Also recorded” adds a separate entry of the source.
# Columns and labels:
# [1] = tested on: CD11c^+ microglia of 9-mo old 5XFAD and OPN-KO.5XFAD mice; assay: In vitro analysis of OPN-dependent inhibition of TREM2-lysosomal phagocytic pathway and Aβ degradation; format: cell-based, mouse; conditions: rmOPN 12.5 μg/ml, anti-OPN Ab 10 μg/ml
# Description: (a) Protocol of in vitro analysis of OPN-dependent inhibition of TREM2-lysosomal phagocytic pathway in 9-mo old 5XFAD and OPN-KO.5XFAD mice. […] (d) The MFI of FAM-Aβ 1-42 after 1 h's incubation was determined by flow cytometry in lysosomes of CD11c^+ microglia (CD11c^+CD68^+) and defined as Aβ MFI1h. MFI of retained FAM-Aβ in lysosomes of CD11c^+ microglia (CD11c^+CD68^+) 24 h after FAM-Aβ1-42 withdrawal was determined and defined as Aβ MFI24h. […] All data are presented as mean±s.e.m.
# To test the impact of OPN on TREM2-lysosome activation and AR degradation, microglia enriched by anti-CD11b microbeads (purity >95%, Miltenyi) from 9-mo old 5XFAD and OPN-KO.5XFAD mice were seeded into 12-well plates at 3×10^5 cells/well in conventional microglia culture medium (DMEM-F12 with 10% fetal bovine serum+10% penicillin/streptomycin+10 ng/ml recombinant mouse M-CSF). Microglia were then pre-incubated with anti-OPN Ab (10 μg/ml) for 1 h followed by the incubation with rmOPN ([…]) overnight. Then FAM-labeled Aβ1-42 peptide (1 μM) was added into culture for 1 h. Mean fluorescence intensity (MFI) of FAM-Aβ1-42 in lysosomes of CD11c^+ microglia (CD11c^+CD68^+) after 1 h's incubation was determined by flow cytometry and defined as Aβ MFI1h. FAM-Aβ1-42 was then withdrawn, and cells were cultured for 24 h in the presence or absence with anti-OPN Ab (10 μg/ml) and/or rmOPN (12.5 μg/ml) before analysis of CD11c^+ microglial expression of TREM2, CD68 and MFI of retained FAM-Aβ1-42 in CD11c^+CD68^+ microglia (defined as Aβ MFI24h) by flow cytometry. Aβ degradation rate was calculated as (Aβ MFI1h−Aβ MFI24h)/Aβ MFI1h.
# [2] = tested on: CD11c^− microglia; assay: Apoptotic neuron (AN) uptake and CD11c^- to CD11c^+ differentiation of microglia with αVβ3 / TAM receptor inhibitors; format: cell-based, mouse; conditions: P5 B6-WT CD11c^− microglia, 72 h with pHrodo-labeled ANs 1:1; cilengitide 10 μM, LDC1267 1 μM
# Text: (A) Brain single cell suspensions of 9-mo old WT mice were generated for validation of microglial CD11c expression by flow cytometry. We first gate on CD11b^+ cells from single/live cells followed by subsequent gating of CD11b^+CD45^low populations as potential microglia. […] In contrast, CCR2 but not Tmem 119 expression is detected in the CD11b^+CD45^high fraction, i.e., putative macrophage populations. Analysis of the CD11b^+CD45^low microglial population using FMO negative controls for these FACS plots confirms specificity. […] (B) The proportion of CD11c^+ microglia in C57BL/6 (B6) mice during early development and normal aging (n=3) was determined by flow cytometry analysis. CD11c^+ microglia were initially present at late embryonic day (E18.5), peaked at early postanal day (P5) and gradually declined to marginal levels in young adulthood (3-mon) followed by re-emergence and further expansion during aging. (C) CD11c^− microglia were isolated from P5 B6-WT mice by negative section with anti-CD11c magnetic beads (purity >99%) followed by co-incubation×72 h in the presence or absence of pHrodo fluorescent dye-labeled apoptotic neurons (ANs) at a 1:1 ratio. After 72 h incubation, 23% of total CD11c^− microglia had ingested ANs (AN^+), of which 77.4% of these AN^+ microglia were CD11c^+. […] Expression of CD11c was assessed in CD86^+ or MHC II^+ activated microglia. […]
Compound,Aβ degradation rate [(Aβ MFI1h−Aβ MFI24h)/Aβ MFI1h] in lysosomes of CD11c^+ microglia ([1]; FAM-Aβ1-42 1 μM),CD68 expression in CD11c^+ microglia ([1]; OPN-KO.5XFAD microglia),TREM2 expression in CD11c^+ microglia ([1]; OPN-KO.5XFAD microglia),reduction of AN uptake by CD11c^− microglia [2]
rmOPN: recombinant mouse OPN (osteopontin),substantial reduction of Aβ degradation; also recorded: significantly reduced the Aβ degradation rate,reduced expression of CD68; also recorded: significantly reduced,sharply inhibited; also recorded: sharply reduced,–
CC(C)[C@H]1C(=O)N[C@@H](CCCN=C(N)N)C(=O)NCC(=O)N[C@@H](CC(=O)O)C(=O)N[C@H](Cc2ccccc2)C(=O)N1C [Cilengitide],–,–,–,about 50%
